Active and inactive are the calls of the source.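 Rule for the calls: active = compounds giving half or more protection of infected cells from virus-caused growth loss, again on retest; inactive = the rest.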
Tested on: CEM cells HIV-1 protection, formazan growth assay
Assay: NCI AIDS Antiviral Assay
Details: for IC50: measured here: growth of uninfected CEM cells
In short: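 Steps: treat uninfected and HIV-1-infected human CEM cells at five drug levels; quantify growth by soluble formazan; retest any compound reaching 50% protection; classify actives from the retest.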

| SMILES | EC50 | IC50 | outcome |
| --- | --- | --- | --- |
| C/C(=N\N=C(/[O-])c1ccccc1)c1cccc(/C(C)=N/N=C(\[O-])c2ccccc2)n1.O.[Cu+2] | > 100 µM | 18.2 µM |  |
| Nc1nc(N)c(CCc2ccccc2)c(N)n1 |  |  | inactive |
| CN(C)c1ccc(-c2c(C#N)c(-c3ccccc3)n(NS(=O)(=O)c3ccccc3)c(=O)c2C#N)cc1 | > 200 µM | 13.2 µM |  |
| COc1ccc(N2C(=O)[C@@H]3[C@H](C2=O)c2[nH]c4ccccc4c2C2CCC(C(C)(C)C)C[C@@H]23)cc1 (some centres not stated) | > 28.2 µM | > 28.2 µM |  |
| CCOC(=O)COc1ccc(C[C@H](NC(=O)O[C@H]2CCOC2)[C@H](O)CN(CC(C)C)S(=O)(=O)c2ccc(N)cc2)cc1 | 0.0589 µM | 64.6 µM |  |
| Cc1cc(S(=O)(=O)Nc2nnc3ccc4ccccc4n23)c(S)cc1Cl | > 200 µM | 30.9 µM |  |
| O=C(O)CC(c1ccccc1)C(CC(=O)O)c1ccccc1 (configuration not stated) | > 437 µM | > 437 µM |  |
| C=C1c2nc3ccccc3n2C=C(c2ccc(C)cc2)N1c1ccccc1 | > 200 µM | 1.35 µM |  |
| O=C(c1cccs1)N(C(=O)N1CCC(c2ccccc2)CC1)c1ccccc1 | > 200 µM | > 200 µM |  |
| c1ccc2cc(C3NCCc4[nH]cnc43)ccc2c1 (configuration not stated) | > 28.8 µM | > 28.8 µM |  |
| COC(=O)c1ccccc1NCc1cc(O)ccc1O | > 200 µM | 30.9 µM |  |
| CCCOC(=O)NC(C)C(=O)NC(CCC(=O)NC(CCCC(N)C(=O)O)C(=O)NC(C)C(=O)O)C(=O)O (configuration not stated) | > 50.1 µM | > 50.1 µM |  |
| CCOC(=O)Nc1cc2c(c(N)n1)N=C(c1ccccc1)CN2 | > 0.17 µM | 0.0316 µM |  |
| NC(=O)c1ncn(C2C=CC(CP(=O)(O)O)C2)c1N (configuration not stated) | > 200 µM | > 200 µM |  |
| COC(=O)/C(=N/NC(=O)C[N+](C)(C)C)C(C(=O)OC)C(=O)C(=O)Nc1ccc(F)cc1 (configuration not stated) | > 145 µM | > 145 µM |  |
| Cc1ccc2c(c1)[nH]c(=S)n2C=C1C(=O)NC(=O)NC1=O | > 100 µM | > 100 µM |  |
| Nn1c(=O)n2n(c1=O)C1CCC2C1 | > 200 µM | > 200 µM |  |
| CC(=O)OC1COC(n2c(=S)n(-c3ccc(C)cc3)c(=O)c3ccccc32)C(OC(C)=O)C1OC(C)=O (configuration not stated) | > 25.7 µM | > 25.7 µM |  |
| O=C(CCCN1CCN(c2ccccn2)CC1)c1ccc(F)cc1 | > 132 µM | 72.4 µM |  |
| COc1cc(C)cc2c(-c3c(O)cc(O)c4c3CC(C)N[C@H]4C)cc(-c3cc(-c4c(O)cc(O)c5c4CC(C)N[C@H]5C)c4cc(C)cc(OC)c4c3O)c(O)c12 (some centres not stated) | 38 µM | 166 µM |  |
| On1c(-c2ccccc2)nc2ccccc2c1=S | > 200 µM | 1.45 µM |  |

| SMILES | EC50 | IC50 | outcome |
| --- | --- | --- | --- |
| NC(=S)N/N=C1\C(=O)N(c2cccc([N+](=O)[O-])c2)C(=O)C1C(=O)Nc1cccc([N+](=O)[O-])c1 (configuration not stated) |  |  | inactive |
| CN/N=C(/Cc1occc(=O)c1O)C(=O)Nc1ccc(C)c(C)c1 | > 288 µM | > 288 µM |  |
| N#CCC(=O)N/N=C(/C(=O)Nc1ccccc1)C1C(=O)N(c2ccccc2)N=C1N (configuration not stated) | > 170 µM | > 170 µM |  |
| COc1ccc(-n2cnc3c(NCC(=O)O)ncnc32)cc1 | > 200 µM | > 200 µM |  |
| O=C1NC2CC=CCC12 (configuration not stated) | > 2040 µM | > 2040 µM |  |
| COc1cc(C2c3c(ccc4ccccc34)C(=O)C3CCC(=O)N32)cc(OC)c1OC (configuration not stated) | > 50.1 µM | 18.2 µM |  |
| CCCc1cc(=O)oc2c(C=O)c(O)cc(O)c12 | > 200 µM | 63.1 µM |  |
| C#CCN(Cc1ccc2nc(OC)c(OC)nc2c1)c1cc(OC)c(OC)c(OC)c1 | > 200 µM | 11.2 µM |  |
| O=c1nc(SSc2ccn(C3OC(CO)C(O)C3O)c(=O)n2)ccn1C1OC(CO)C(O)C1O (configuration not stated) | > 200 µM | 2.63 µM |  |
| CC(=O)c1nc2ccccc2n1CC(=O)c1ccc([N+](=O)[O-])cc1 | > 200 µM | 7.59 µM |  |
| O=C(c1ccccc1)C1(c2ccccc2)SSC1(C(=O)c1ccccc1)c1ccccc1 (configuration not stated) | > 100 µM | > 100 µM |  |
| C/C(=N\O)C(CN1CCCCC1)C(c1ccccc1)c1c(O)c2ccccc2oc1=O (configuration not stated) | > 29.5 µM | > 29.5 µM |  |
| Cc1[nH]nc2c1NC(=O)OCC2 | > 550 µM | > 550 µM |  |
| COC(=O)C1=C(C(=O)OC)SC(=C(Br)C(=C2SC(C(=O)OC)=C(C(=O)OC)S2)C(=C2SC(C(=O)OC)=C(C(=O)OC)S2)C(Br)=C2SC(C(=O)OC)=C(C(=O)OC)S2)S1 | > 2.51 µM | > 2.51 µM |  |
| CCCCCCCCCCCCCCCCP(=O)([O-])OCC[N+](C)(C)C | > 200 µM | 12 µM |  |
| CC(CO)(CO)N1C(=O)C2C3C=CC(C3)C2C1=O (configuration not stated) | > 200 µM | > 200 µM |  |
| O=c1c2cc3c(cc2c2cccc4ccn1c42)OCO3 |  |  | inactive |
| COc1cc2ccc1OCc1cccc(n1)COc1ccc(cc1OC)C=Nc1ccc(cc1)-c1ccc(cc1)N=C2 | > 200 µM | > 200 µM |  |
| CN(/N=C/c1cccc2cccnc12)c1ccc([N+](=O)[O-])cc1 |  |  | inactive |
| Cc1nc2c(sc3nc4c(cc32)CCC4)c(=O)o1 | > 100 µM | 53.7 µM |  |
| CC(C)[Si](OCC1CC(C#N)OC(C)(C)O1)(C(C)C)C(C)C (configuration not stated) | > 200 µM | 107 µM |  |

| SMILES | EC50 | IC50 | outcome |
| --- | --- | --- | --- |
| CC1=CC(=O)CC2(C)CC[C@@H]3C[C@]12OC3(C)C (some centres not stated) |  |  | inactive |
| CC(C)(C)COC(=O)NS(=O)(=O)Nc1ccccc1 | > 200 µM | > 200 µM |  |
| C(=C/c1nc2ccccc2o1)/c1ccc2c(c1)OCO2 | > 10.2 µM | > 10.2 µM |  |
| O=C1c2ccccc2C2CC1c1ccccc12 (configuration not stated) | > 214 µM | > 200 µM |  |
| O=S(=O)(ON=C1C=CC(=NOS(=O)(=O)c2ccccc2)C=C1)c1ccccc1 | > 200 µM | 1.02 µM |  |
| COc1cccc(N=N/C(=N\NC(=O)c2cc(Br)ccc2O)c2ccc(N(CCC#N)CCC#N)cc2OC)c1 | > 100 µM | 13.5 µM |  |
| O=C(/C=C/c1ccc(O)c(O)c1)OCCCOC(=O)/C=C/c1ccc(O)c(O)c1 | > 100 µM | 13.8 µM |  |
| O=c1[nH]cnc2c1ncn2CCCCO |  |  | inactive |
| Cc1cccc(N=C2NC(=O)C(CC(=O)Nc3ccccc3Cl)S2)c1 (configuration not stated) | > 10 µM | > 10 µM |  |
| [N-]=[N+]=Nc1ccccc1Oc1ccccc1 | 58.9 µM | 89.1 µM |  |
| O=C(O)CNCCCCCCNCC(=O)O | > 631 µM | 617 µM |  |
| COc1ccc(/C=C/C(=O)c2sc(-c3cccnc3)nc2C)cc1 | > 21.4 µM | > 21.4 µM |  |
| C=CC12CN3C4C3C1C1(CCC42)C(=O)N(COCC[Si](C)(C)C)c2ccccc21 (configuration not stated) | > 63.1 µM | 25.7 µM |  |
| COc1cc2c3c(c1OC)-c1cc4c(cc1CC3(C#N)N(C(=O)c1ccccc1)CC2)OCO4 (configuration not stated) |  |  | inactive |
| COCC[P+](c1ccccc1)(c1ccccc1)c1ccccc1 | > 200 µM | 7.76 µM |  |
| c1onc2c1CCCC2 (tested in a mixture with another compound) | > 1620 µM | > 1620 µM |  |
| CCOC1C(Br)Cn2c(=O)c3cc4ccccc4cc3c(=O)n2C1C (configuration not stated) | > 17.8 µM | > 17.8 µM |  |
| N#Cc1c(N)c(C(=O)Nc2ccc(Cl)cc2)n2c1CCC2 | > 200 µM | > 200 µM |  |
| CN1CCC2(CC1)C(=O)N(N1CCCCCC1)C(=O)N2c1ccccc1 | > 200 µM | > 200 µM |  |
| CCOCC(=O)N[C@H]1CCc2cc(OC)c(OC)c(OC)c2-c2ccc(OC)c(=O)cc21 | > 2 µM | 0.00347 µM |  |

From PubChem BioAssay AID179 (DTP/NCI, 2004)
